Literature values in patent US20100239665A1 (priority 2007, published 2010).

solubility in water: practically insoluble in water
SMILES: COCCOC(=O)C1=C(C)NC(C)=C(C(=O)OC(C)C)C1c1cccc([N+](=O)[O-])c1 (stereo not shown) [Nimodipine]
